Measured values reported in patent publication US6503709B1, “Methods for rapidly detecting methicillin resistant staphylococci” (priority 1997, dated 2003).
Values after ≈ are worked out from the molar mass of the structure shown. {Fluorescein} = fluorescein label; {Biotin} = biotin label; d = 2'-deoxy (DNA); r = 2'-OH (RNA)

Legend:
[1] = tested on: borderline oxacillin resistant S. aureus (BORSA) isolates; assay: Disk diffusion, oxacillin in the presence of clavulanic acid; format: cell-based, Staphylococcus aureus
Procedure: (§1) The crude lysate preparations, probe synthesis, CPT procedure and analyses were carried out as described in Example 4 except that the cells were picked from the TSA blood plate with a 1 μl plastic loop (PML Microbiological, Richmond, BC, Canada) resuspended in 50 μl of 0.05% Triton X-100® in 20 mM TES buffer (pH 6.8) and lysed with the addition of achromopeptidase (Wako Bioproducts) as described in Example 4. The DNA was heat denatured at 95° C. for 5 minutes prior to use. The experiment was carried out as an operator blind study. The isolates were also tested with conventional oxacillin screening agar (PML Microbiological), Kirby-Bauer Disc diffusion, minimal inhibitory concentration (MIC) using E-Test with 4% NaCl Meuller-Hinton and S. aureus were tested with the BBL® Crystal™ MRSA ID test (Beckton Dickinson).

[2] = tested on: borderline oxacillin resistant S. aureus (BORSA) isolates; assay: Minimal inhibitory concentration (MIC) using E-Test; format: cell-based; conditions: Staphylococcus aureus
Procedure: as §1

mecA gene [3] = assay: CPT Direct Fluorescence Assay (CPT-DFA) on crude lysates; format: biochemical, Staphylococcus aureus
Procedure: Two experiments were carried out for the detection of the mecA gene from clinical isolates using the direct fluorescence assay (DFA) combined with CPT (CPT-DFA). In the first experiment, 58 isolates were screened using a plate reader format, and in the second experiment, 120 isolates were screened using single tube reader format. Briefly, the assay uses a fluoresceinated and biotinylated chimeric probe complementary to a sequence within the mecA gene present in MRSA, but not in MSSA. The probe is labeled with fluorescein at the 5′ end and biotin at the 3′ end. The CPT assay is performed with crude lysate preparations from Staphylococcal cells in the presence of RNase H and the chimeric probe. After the cycling reaction, streptavidin coated magnetic beads are added to bind the uncleaved probe. The supernatant containing the cleaved fragment labeled with fluorescein is separated from the beads using a magnet and the supernatant is transferred to a glass tube or a microtiter plate for fluorescence measurement.
The source of the fifty-eight clinical isolates were obtained from Cleveland Hospital, Wishard Memorial and Vancouver General Hospital. All MRSA and MSSA cells were prepared and lysed essentially as described in Example 4 except that the lysates were prepared as either 2×McFarland No. 5 standard density or 1 μl loop of cells in 50 μl volume. One μl loop of cells is approximately equivalent to 5×McFarland No. 5 standard.
The streptavidin coated magnetic beads (Dynal M-280, Oslo, Norway) were prepared by washing two times in an equal volume of TES cycling buffer (4 mM MgCl2, 0.05% Triton X-100®, 20 mM TES, pH 6.8). The beads were then re-suspended in 10 times the original volume with cycling buffer containing NaCl. The diluted beads were added to the reactions containing biotinylated probe to a final concentration of 50 μg of beads/reaction and a final NaCl concentration of 1.5 M. Binding was carried out in a thermomixer (Eppendorf) at 37° C. with mixing at a speed of 13×100 minutes^−, for 10 minutes. The supernatant was then separated from the beads using an MPC magnet (Dynal).
Probe was detected after binding using the Fluoroskan fluorescence plate reader (Labsystems, Needham. Mass.) by placing the supernatant containing the cleaved probe in a well of MicroFluor ‘U’ black round bottom plate (Dynatech, Chantilly, Va.). To each well containing a sample, 150 μl of 0.22 M DEA pH 10 was added. Any bubbles in the wells were removed using the edge of a Kimwipe (Roswell, Ga.). The plate was scanned in the plate reader with an excitation wavelength of 485 nm, an emission wavelength of 538 nm and a scan/well time of 20×0.1 sec, at room temperature. Similar detection using the Beacon-2000 tube reader (Panvera, Madison, Wis.) was performed, by placing the supernatant containing the probe in a borosilicate glass tube (Kimble, Toledo, Ohio), that contains 11 μl of 2.0 M DEA, pH 10. The samples were then vortexed and the fluorescence intensity was measured using the static mode of the Beacon-2000 instrument. The excitation and emission wavelengths were 485 nm and 515 nm respectively and an average of 10 read cycles at 25° C. was used.
The assay used a chimeric probe FmecA945-29(XL)4B3 (SEQ ID NO:5) labeled with fluorescein at the 5′ end and three biotin at the 3′ end. Cycling reactions with crude lysate were performed in a 50 PI reaction containing 25 μl of crude lysates. The lysates were denatured at 95° C. for 2 minutes. CPT reaction was carried out and the final conditions were as follows: 1 pmol chimeric probe, 25 μl of crude lysates, 50 μM EDTA, 0.5 mM spermine, 1.5 μg of RNase H in a final reaction volume of 50 μl. All reactions were cycled in a 60° C. water bath, in microcentrifuge tubes (uncapped) for 50 minutes. Reactions were stopped with the addition of an equal volume of diluted beads (50 μg of beads/reaction in Cycling Buffer and NaCl), while still in the water bath. Binding and detection were carried out as described above. […]

mecA 227 bp amplicon = assay: PCR followed by CPT-EIA detection of amplicon; format: biochemical, Staphylococcus aureus
Procedure: Crude lysates of MSSA (ATCC 11632) and MRSA (ATCC 33592) strains were grown overnight at 37° C. on tryptic soy agar with 5% sheep blood (PML Microbiologicals, Tualatin, Oreg.). A cell suspension was made in TES buffer (20 mM TES (pH 6.8), 0.05% Triton X-100) to obtain a cell density equivalent to a 5×McFarland#5 standard of turbidity (7.5×10^9 cells/ml). The cells were lysed with 150 U/ml achromopeptidase (Wako ) for 25 min at 37° C. After lysis, the cells were stored at −20° C. Adequate dilutions were made in deionized sterile water.
The PCR reaction was carried out in a 25 μl reaction containing 20 mM Tris,(pH 8.3) 1.5 MM MgCl2 0.2 mM dNTPs (Pharmacia), 6.25 pmol of each primer (Table 1) and 0.5 U AmpliTaq Gold (Perkin Elmer). The PTC-100 Programmable Thermal Cycler (MJ Research, Inc.) was used with the following PCR program: 95° C. for 10 min., 20×(94° C. for 40 s, 53° C. for 40 s and 72° C. for 1.5 min). The reaction was submitted to a final extension step at 72° C. for 5 min. and then held at 4° C. prior to analysis. PCR reactions were analyzed by CPT as described below or using a 2% agarose gel and ethidium bromide (Et-Br) staining.
The 227 bp mecA PCR product was used as a standard to determine the sensitivity of CPT-EIA and Et-Br stained gels. The amplicon was prepared as follows: several 100 μl reactions were subjected to 30 cycle PCR and the amplicon was purified using a Qiagen PCR purification kit as recommended by the manufacturer. The 227 bp product was quantified by spectrophometer and used as a standard.
CPT-EIA. The 25 μl PCR reaction was heat denatured at 95° C. for 2 min and then placed at 54° C. The CPT components in 25 μl were added to the PCR reaction to give a CPT reaction volume of 50 μl. […]

mecA gene [4] = assay: Non-isotopic CPT assay (CPT-EIA) on crude lysates of clinical isolates; format: biochemical, Staphylococcus aureus; conditions: n = 51, subtractive CPT assay
Description: The non-isotopic MRSA Assay which combines CPT with an enzyme immunoassay (CPT-EIA) is schematically illustrated in FIG. 3. This Rapid MRSA Test uses a fluoresceinated and biotinylated chimeric probe which provides an RNase H sensitive scissile linkage when bound to the complementary base sequence of the mecA gene. The uncleaved probe (mecA negative) is detected by binding of the probe to a solid surface and attachment of an antibody conjugated with horse radish peroxidase, which converts a substrate to a colored end product. Cleavage of the probe (mecA positive) prevents binding of the probe-antibody complex to the solid surface thus preventing formation of the colored end product. A result is generated in 90 minutes.
Effective lysis of both MRSA and MSSA were developed and optimized. The composition of the Lysis Reagent is as follows: 200 Units/ml of achromopeptidase (Wako Bioproducts, Wako), 0.02 mg/ml lysostaphin (Sigma, St. Louis, Mo.), 0.05% (v/v) Triton X 100® and 20 mM TES buffer, pH 8.5. […]
After cycling, 100 μl of Binding Reagent (Peroxidase Stabilizing Buffer, DAKO, Mississauga, ON), sheep polyclonal anti-fluorescein-horse radish peroxidase conjugated antibody (1/750 dilution, NEN, Boston, Mass.) was added to the tubes. […] The plate is read using a Vmax plate reader (Molecular Devices) set at OD of 650 nm (OD650).

[5] = 58 isolates, Fluoroskan plate reader, relative to culture and PCR resolution
[6] = 120 isolates, 1 pmol probe, Beacon-2000 tube fluorometer
[7] = 120 isolates, Beacon-2000 tube fluorometer

Q: What does the source list for `Cc1onc(-c2ccccc2)c1C(=O)N[C@@H]1C(=O)N2[C@@H]1SC(C)(C)[C@@H]2C(=O)O` [oxacillin]?
A: susceptibility by disk diffusion [1]: susceptible; MIC ([2]; 4 S. aureus isolates lacking mecA, oxacillin agar screen positive): 3 to 16 µg/mL (≈ 7.47 to 39.9 µM); MIC ([2]; additional 31 S. aureus isolates lacking mecA, E test): 3 to 12 µg/mL (≈ 7.47 to 29.9 µM)

Q: With “FmecA945-29(XL)4B3 (DNA AATAGAGAAAAAGAAAAAAGATGGCAAAG; fluorescein and biotin labels, chimeric DNA/RNA, further chemistry not given here)” as the molecule, how does the “sensitivity for detection of the mecA gene” value (mecA gene [3]; [5]) read?
A: Its value is 100%.

Q: What about the “specificity for detection of the mecA gene” value (mecA gene [3]; [5]) of the same molecule?
A: Its value is 100%.

Q: And the “range of fluorescence of MRSA samples” value (mecA gene [3]; [6])?
A: The value was 144.2-191.9.

Q: And the “range of fluorescence of MSSA samples” value (mecA gene [3]; [6])?
A: The value was 58.1-101.7 RFU.

Q: And the “net gap between the highest MSSA sample and the lowest MRSA” value (mecA gene [3]; [7])?
A: Its value is 42.5 RFU.

Q: What about the sensitivity (mecA gene [3]; [7]) of the same molecule?
A: The sensitivity was 100%.

Q: And the specificity (mecA gene [3]; [7])?
A: Its specificity is 98%.

Q: Which “starting MRSA cells whose amplicon CPT-EIA could detect” value (mecA 227 bp amplicon; 20 cycle PCR, serial dilution of crude lysates) does the source give for “FmecA945-29B (DNA AATAGAGAAAAAGAAAAAAGATGGCAAAG; sugars from the 5' end d13 r4 d12, 5' {Fluorescein}, 3' {Biotin}, backbone and methylation of C not given here; further chemistry not fully specified)” here?
A: The value was no less than 100 cells.

Q: And the probe cleaved (mecA 227 bp amplicon; 100 MRSA cell equivalent samples, 20 cycle PCR)?
A: Its probe cleaved is 80%.

Q: And the “number of times the target is cycled in CPT” value (mecA 227 bp amplicon; 100 MRSA cell equivalents, assuming 100% PCR efficiency (175 amol))?
A: The value was “at least 50”.

Q: What about the “A650 nm Mean” value (mecA gene [4]; MRSA clinical isolate lysates) of the same molecule?
A: The value was 0.053.

Q: And the “A650 nm Mean” value (mecA gene [4]; MSSA clinical isolate lysates)?
A: Its value is 0.239.
